Patent publication US20230391768A2, “IMIDAZOPYRIDINE DERIVATIVES AND AZA-IMIDAZOPYRIDINE DERIVATIVES AS JANUS KINASE 2 INHIBITORS AND USES THEREOF” (Dana-Farber Cancer Institute, Inc., priority 2018, published 2023)

What was measured:
Experiment in all cases: KINOMEscan
Format in all cases: binding
Details in all cases: read-out: percent of control
[1] = target: GRK1 (Homo sapiens (Human), UniProt Q15835)
Protocol: (§1) In vitro profiling of Compound I-2 (1 μM) was performed using the DiscoveRx KINOMEscan® platform.

[2] = target: DMPK2 (Homo sapiens (Human), UniProt Q6DT37)
Protocol: as §1

[3] = target: HCK (Homo sapiens (Human), UniProt P08631)
Protocol: as §1

[4] = target: MYLK4 (Homo sapiens (Human), UniProt Q86YV6)
Protocol: as §1

[5] = target: MRCKA (Homo sapiens (Human), UniProt Q5VT25)
Protocol: as §1

[6] = target: MAST1 (Homo sapiens (Human), UniProt Q9Y2H9)
Sequence of MAST1 (Q9Y2H9 whole entry): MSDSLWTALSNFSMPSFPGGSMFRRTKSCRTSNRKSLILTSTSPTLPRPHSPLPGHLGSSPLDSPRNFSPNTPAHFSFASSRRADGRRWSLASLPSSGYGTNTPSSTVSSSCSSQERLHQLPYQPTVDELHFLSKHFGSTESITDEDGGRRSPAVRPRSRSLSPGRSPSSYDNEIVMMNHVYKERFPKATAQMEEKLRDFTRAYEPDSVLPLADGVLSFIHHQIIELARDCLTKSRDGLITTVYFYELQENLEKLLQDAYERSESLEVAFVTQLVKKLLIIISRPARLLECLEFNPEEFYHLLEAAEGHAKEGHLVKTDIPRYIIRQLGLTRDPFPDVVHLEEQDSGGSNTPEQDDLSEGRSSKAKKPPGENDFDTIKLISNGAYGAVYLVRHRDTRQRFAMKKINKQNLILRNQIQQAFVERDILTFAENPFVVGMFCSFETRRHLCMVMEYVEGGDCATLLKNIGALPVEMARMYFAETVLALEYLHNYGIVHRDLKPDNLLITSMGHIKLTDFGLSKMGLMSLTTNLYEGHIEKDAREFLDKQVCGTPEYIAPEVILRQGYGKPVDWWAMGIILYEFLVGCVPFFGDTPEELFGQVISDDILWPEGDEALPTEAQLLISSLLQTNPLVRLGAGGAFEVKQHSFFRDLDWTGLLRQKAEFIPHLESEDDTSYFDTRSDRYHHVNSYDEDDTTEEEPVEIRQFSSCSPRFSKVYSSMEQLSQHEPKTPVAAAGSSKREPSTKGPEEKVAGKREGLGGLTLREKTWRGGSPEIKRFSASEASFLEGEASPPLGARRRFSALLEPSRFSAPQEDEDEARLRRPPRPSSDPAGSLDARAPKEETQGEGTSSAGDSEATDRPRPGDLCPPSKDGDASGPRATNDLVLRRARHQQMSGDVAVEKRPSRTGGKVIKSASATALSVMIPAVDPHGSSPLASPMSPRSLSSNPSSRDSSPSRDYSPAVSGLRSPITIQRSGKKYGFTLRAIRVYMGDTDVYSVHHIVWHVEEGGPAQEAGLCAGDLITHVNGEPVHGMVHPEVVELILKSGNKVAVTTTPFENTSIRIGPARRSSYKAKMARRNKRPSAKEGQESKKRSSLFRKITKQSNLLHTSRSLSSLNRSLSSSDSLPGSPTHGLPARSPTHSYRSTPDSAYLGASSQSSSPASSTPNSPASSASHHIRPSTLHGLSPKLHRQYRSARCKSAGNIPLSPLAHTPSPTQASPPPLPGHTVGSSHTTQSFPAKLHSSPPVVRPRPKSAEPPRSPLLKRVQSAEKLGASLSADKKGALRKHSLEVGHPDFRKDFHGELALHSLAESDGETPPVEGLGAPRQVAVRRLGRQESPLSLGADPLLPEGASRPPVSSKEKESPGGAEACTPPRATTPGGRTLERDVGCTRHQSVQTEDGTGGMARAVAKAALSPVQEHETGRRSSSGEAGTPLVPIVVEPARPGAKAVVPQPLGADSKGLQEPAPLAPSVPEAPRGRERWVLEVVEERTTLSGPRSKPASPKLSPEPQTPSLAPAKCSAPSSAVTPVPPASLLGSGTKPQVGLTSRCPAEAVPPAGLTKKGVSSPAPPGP
Protocol: as §1

[7] = target: SRPK3 (Homo sapiens (Human), UniProt Q9UPE1)
Protocol: as §1

[8] = target: AKT1 (Homo sapiens (Human), UniProt P31749)
Protocol: as §1

[9] = target: AAKI (Homo sapiens (Human), UniProt Q2M2I8)
Sequence of AAKI (Q2M2I8 whole entry): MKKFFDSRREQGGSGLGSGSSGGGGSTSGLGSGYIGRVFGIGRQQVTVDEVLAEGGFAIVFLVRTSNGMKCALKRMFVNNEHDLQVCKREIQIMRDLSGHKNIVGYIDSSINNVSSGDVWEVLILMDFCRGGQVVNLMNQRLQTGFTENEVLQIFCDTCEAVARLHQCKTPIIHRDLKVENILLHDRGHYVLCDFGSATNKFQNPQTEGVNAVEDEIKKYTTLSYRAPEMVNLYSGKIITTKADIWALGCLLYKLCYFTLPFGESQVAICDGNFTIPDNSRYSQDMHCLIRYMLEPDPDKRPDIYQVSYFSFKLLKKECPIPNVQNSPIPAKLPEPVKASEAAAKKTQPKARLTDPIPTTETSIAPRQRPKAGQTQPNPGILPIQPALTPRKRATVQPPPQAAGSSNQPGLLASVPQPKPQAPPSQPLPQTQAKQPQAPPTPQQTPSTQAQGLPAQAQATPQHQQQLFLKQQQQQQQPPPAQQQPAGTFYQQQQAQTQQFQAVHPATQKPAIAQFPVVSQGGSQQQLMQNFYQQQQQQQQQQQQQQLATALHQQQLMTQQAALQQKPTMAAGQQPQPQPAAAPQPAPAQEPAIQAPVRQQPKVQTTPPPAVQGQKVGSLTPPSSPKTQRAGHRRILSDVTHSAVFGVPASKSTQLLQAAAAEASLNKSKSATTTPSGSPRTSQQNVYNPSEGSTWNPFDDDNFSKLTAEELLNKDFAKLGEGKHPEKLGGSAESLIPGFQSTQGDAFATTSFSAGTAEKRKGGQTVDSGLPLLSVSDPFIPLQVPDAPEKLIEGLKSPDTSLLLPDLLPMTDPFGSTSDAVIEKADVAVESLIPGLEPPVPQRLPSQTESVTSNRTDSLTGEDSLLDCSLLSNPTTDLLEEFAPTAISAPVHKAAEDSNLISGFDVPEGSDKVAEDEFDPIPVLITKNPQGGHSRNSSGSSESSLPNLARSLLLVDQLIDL
Protocol: as §1

[10] = target: PIK3CA(1800L) (Homo sapiens (Human), UniProt P42336, I800L)
Sequence of PIK3CA(1800L) (P42336 whole entry I800L): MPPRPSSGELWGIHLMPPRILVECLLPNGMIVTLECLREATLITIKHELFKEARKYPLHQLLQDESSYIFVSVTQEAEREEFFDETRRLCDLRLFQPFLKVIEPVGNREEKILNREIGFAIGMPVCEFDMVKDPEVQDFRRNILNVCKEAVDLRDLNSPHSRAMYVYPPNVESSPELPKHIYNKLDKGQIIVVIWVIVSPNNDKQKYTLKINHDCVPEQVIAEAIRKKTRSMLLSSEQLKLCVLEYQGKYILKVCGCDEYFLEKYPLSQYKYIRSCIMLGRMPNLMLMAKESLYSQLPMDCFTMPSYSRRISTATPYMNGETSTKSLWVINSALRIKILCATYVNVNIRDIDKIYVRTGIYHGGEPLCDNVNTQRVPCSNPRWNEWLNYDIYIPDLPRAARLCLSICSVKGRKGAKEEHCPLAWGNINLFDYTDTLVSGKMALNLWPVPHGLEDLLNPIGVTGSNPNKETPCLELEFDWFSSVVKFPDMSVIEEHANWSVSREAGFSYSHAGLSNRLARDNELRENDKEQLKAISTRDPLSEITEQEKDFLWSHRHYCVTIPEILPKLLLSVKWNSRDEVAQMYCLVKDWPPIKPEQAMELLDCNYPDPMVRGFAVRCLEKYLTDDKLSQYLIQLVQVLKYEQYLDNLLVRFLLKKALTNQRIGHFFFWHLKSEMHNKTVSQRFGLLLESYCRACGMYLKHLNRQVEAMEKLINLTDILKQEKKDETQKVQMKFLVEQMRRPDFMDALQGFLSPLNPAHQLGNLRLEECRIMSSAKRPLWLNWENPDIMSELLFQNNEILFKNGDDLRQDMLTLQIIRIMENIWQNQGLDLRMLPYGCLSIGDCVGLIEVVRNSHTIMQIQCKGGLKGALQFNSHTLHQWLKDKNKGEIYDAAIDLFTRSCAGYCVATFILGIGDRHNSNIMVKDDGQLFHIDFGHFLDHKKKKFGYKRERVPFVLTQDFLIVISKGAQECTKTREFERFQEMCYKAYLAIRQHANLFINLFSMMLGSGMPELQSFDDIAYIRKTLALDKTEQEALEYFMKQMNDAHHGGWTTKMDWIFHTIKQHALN
Protocol: as §1

[11] = target: BLK (Homo sapiens (Human), UniProt P51451)
Protocol: as §1

[12] = target: TIE1 (Homo sapiens (Human), UniProt P35590)
Protocol: as §1

[13] = target: SgK110 (Homo sapiens (Human), UniProt P0C264)
Sequence of SgK110 (P0C264 whole entry): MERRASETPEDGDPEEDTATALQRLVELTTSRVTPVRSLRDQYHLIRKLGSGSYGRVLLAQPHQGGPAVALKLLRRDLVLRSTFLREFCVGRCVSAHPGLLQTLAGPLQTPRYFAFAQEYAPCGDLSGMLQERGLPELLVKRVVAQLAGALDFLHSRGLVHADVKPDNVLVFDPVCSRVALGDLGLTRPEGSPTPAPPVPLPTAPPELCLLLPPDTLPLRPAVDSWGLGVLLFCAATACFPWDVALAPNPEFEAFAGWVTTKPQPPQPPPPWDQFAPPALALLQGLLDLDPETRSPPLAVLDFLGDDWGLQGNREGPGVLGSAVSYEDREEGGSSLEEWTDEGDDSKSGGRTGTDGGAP
Protocol: as §1

[14] = target: p38-beta (Homo sapiens (Human), UniProt Q15759)
Protocol: as §1

[15] = target: MARK4 (Homo sapiens (Human), UniProt Q96L34)
Protocol: as §1

[16] = target: TRKC (Homo sapiens (Human), UniProt Q16288)
Protocol: as §1

[17] = target: TLK2 (Homo sapiens (Human), UniProt Q86UE8)
Protocol: as §1

[18] = target: RET (V804L) (Homo sapiens (Human), UniProt P07949, V804L)
Protocol: as §1

[19] = target: PCTK2 (Homo sapiens (Human), UniProt Q00537)
Sequence of PCTK2 (Q00537 whole entry): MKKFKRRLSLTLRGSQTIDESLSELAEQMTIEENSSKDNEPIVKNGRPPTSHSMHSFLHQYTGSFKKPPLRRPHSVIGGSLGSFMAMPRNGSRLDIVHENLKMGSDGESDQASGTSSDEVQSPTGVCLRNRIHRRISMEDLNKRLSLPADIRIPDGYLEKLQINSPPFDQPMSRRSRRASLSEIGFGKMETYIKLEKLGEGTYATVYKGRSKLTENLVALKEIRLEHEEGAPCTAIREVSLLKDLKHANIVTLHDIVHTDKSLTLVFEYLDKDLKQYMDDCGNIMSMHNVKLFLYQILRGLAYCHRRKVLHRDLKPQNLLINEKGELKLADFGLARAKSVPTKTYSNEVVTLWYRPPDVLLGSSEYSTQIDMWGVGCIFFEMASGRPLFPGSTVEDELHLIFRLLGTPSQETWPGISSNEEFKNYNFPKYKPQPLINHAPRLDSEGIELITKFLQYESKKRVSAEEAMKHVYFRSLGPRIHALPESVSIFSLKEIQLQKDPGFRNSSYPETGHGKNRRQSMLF
Protocol: as §1

[20] = target: EPHA5 (Homo sapiens (Human), UniProt P54756)
Protocol: as §1

[21] = target: IRAK3 (Homo sapiens (Human), UniProt Q9Y616)
Protocol: as §1

[22] = target: SBK1 (Homo sapiens (Human), UniProt Q52WX2)
Protocol: as §1

[23] = target: NDR2 (Homo sapiens (Human), UniProt Q9Y2H1)
Protocol: as §1

[24] = target: PRKCH (Homo sapiens (Human), UniProt P24723)
Protocol: as §1

[25] = target: CLK2 (Homo sapiens (Human), UniProt P49760)
Sequence of CLK2 (P49760 whole entry): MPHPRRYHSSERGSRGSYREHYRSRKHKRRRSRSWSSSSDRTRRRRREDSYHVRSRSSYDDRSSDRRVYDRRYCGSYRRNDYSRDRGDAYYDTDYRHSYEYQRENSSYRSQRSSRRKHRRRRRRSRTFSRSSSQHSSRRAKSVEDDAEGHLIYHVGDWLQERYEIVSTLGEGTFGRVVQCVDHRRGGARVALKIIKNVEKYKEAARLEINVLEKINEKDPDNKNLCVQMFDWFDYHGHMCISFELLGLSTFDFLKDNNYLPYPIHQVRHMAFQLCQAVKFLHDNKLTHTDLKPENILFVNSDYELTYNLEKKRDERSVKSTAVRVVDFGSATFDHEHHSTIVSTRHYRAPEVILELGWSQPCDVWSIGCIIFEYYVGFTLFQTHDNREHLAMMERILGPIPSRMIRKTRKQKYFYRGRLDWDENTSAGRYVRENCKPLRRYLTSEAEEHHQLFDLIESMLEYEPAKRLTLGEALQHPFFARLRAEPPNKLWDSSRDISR
Protocol: as §1

[26] = target: BRSK1 (Homo sapiens (Human), UniProt Q8TDC3)
Protocol: as §1

[27] = target: DDR1 (Homo sapiens (Human), UniProt Q08345)
Protocol: as §1

[28] = target: DAPK3 (Homo sapiens (Human), UniProt O43293)
Protocol: as §1

[29] = target: NEK7 (Homo sapiens (Human), UniProt Q8TDX7)
Protocol: as §1

[30] = target: CSK (Homo sapiens (Human), UniProt P41240)
Protocol: as §1

[31] = target: LTK (Homo sapiens (Human), UniProt P29376)
Protocol: as §1

[32] = target: PIK3CA(E545A) (Homo sapiens (Human), UniProt P42336, E545A)
Sequence of PIK3CA(E545A) (P42336 whole entry E545A): as the sequence (P42336 whole entry I800L) above, with E545A, L800I counted along it
Protocol: as §1

[33] = target: MAPKAPK5 (Homo sapiens (Human), UniProt Q8IW41)
Protocol: as §1

[34] = target: FLT3 (D835V) (Homo sapiens (Human), UniProt P36888, D835V)
Protocol: as §1

[35] = target: YSK4 (Homo sapiens (Human), UniProt Q56UN5)
Protocol: as §1

[36] = target: STK35 (Homo sapiens (Human), UniProt Q8TDR2)
Protocol: as §1

[37] = target: CSNK2A1 (Homo sapiens (Human), UniProt P68400)
Protocol: as §1

[38] = target: PKN1 (Homo sapiens (Human), UniProt Q16512)
Protocol: as §1

[39] = target: KIT(A829P) (Homo sapiens (Human), UniProt P10721, A829P)
Protocol: as §1

SMILES | remaining binding at 1 µM [1] [%] | remaining binding at 1 µM [2] [%] | remaining binding at 1 µM [3] [%] | remaining binding at 1 µM [4] [%] | remaining binding at 1 µM [5] [%] | remaining binding at 1 µM [6] [%] | remaining binding at 1 µM [7] [%] | remaining binding at 1 µM [8] [%] | remaining binding at 1 µM [9] [%] | remaining binding at 1 µM [10] [%] | remaining binding at 1 µM [11] [%] | remaining binding at 1 µM [12] [%] | remaining binding at 1 µM [13] [%] | remaining binding at 1 µM [14] [%] | remaining binding at 1 µM [15] [%] | remaining binding at 1 µM [16] [%] | remaining binding at 1 µM [17] [%] | remaining binding at 1 µM [18] [%] | remaining binding at 1 µM [19] [%] | remaining binding at 1 µM [20] [%] | other results
CCN1CCN(Cc2cc(NC(=O)c3ccc(C)c(-c4ccc5nc(NC(=O)C6CC6)cn5c4)c3)cc(C(F)(F)F)c2)CC1 [Compound I-6, 3-(2-(cyclopropanecarboxamido)imidazo[1,2-a]pyridin-6-yl)-N-(3-((4-ethylpiperazin-1-yl)methyl)-5-(trifluoromethyl)phenyl)-4-methylbenzamide] | 93 | 100 | 0.05 | 100 | 100 | 95 | 83 | 90 | 89 | 91 | 0.2 | 4 | 57 | 62 | 80 | 0.05 | 98 | 0 | 1.3 | 2.5 | remaining binding at 1 µM [21]: 93%; remaining binding at 1 µM [22]: 97%; remaining binding at 1 µM [23]: 59%; remaining binding at 1 µM [24]: 100%; remaining binding at 1 µM [25]: 100%; remaining binding at 1 µM [26]: 96%; remaining binding at 1 µM [27]: 0.15%; remaining binding at 1 µM [28]: 100%; remaining binding at 1 µM [29]: 91%; remaining binding at 1 µM [30]: 21%; remaining binding at 1 µM [31]: 2%; remaining binding at 1 µM [32]: 100%; remaining binding at 1 µM [33]: 100%; remaining binding at 1 µM [34]: 7.7%; remaining binding at 1 µM [35]: 29%; remaining binding at 1 µM [36]: 59%; remaining binding at 1 µM [37]: 100%; remaining binding at 1 µM [38]: 98%; remaining binding at 1 µM [39]: 12%
CCN1CCN(Cc2cc(NC(=O)c3ccc(C)c(-c4ccc5nc(NC(=O)C6CC6)cn5n4)c3)cc(C(F)(F)F)c2)CC1 [Compound I-2, 3-(2-(cyclopropanecarboxamido)imidazo[1,2-b]pyridazin-6-yl)-N-(3-((4-ethylpiperazin-1-yl)methyl)-5-(trifluoromethyl)phenyl)-4-methylbenzamide] | 91 | 87 | 0 | 96 | 91 | 94 | 92 | 90 | 100 | 100 | 0.75 | 0 | 75 | 60 | 84 | 0.05 | 100 | 0.15 | 1.8 | 2.3 | remaining binding at 1 µM [21]: 90%; remaining binding at 1 µM [22]: 99%; remaining binding at 1 µM [23]: 98%; remaining binding at 1 µM [24]: 86%; remaining binding at 1 µM [25]: 48%; remaining binding at 1 µM [26]: 100%; remaining binding at 1 µM [27]: 0.05%; remaining binding at 1 µM [28]: 93%; remaining binding at 1 µM [29]: 99%; remaining binding at 1 µM [30]: 39%; remaining binding at 1 µM [31]: 3.3%; remaining binding at 1 µM [32]: 91%; remaining binding at 1 µM [33]: 72%; remaining binding at 1 µM [34]: 5.3%; remaining binding at 1 µM [35]: 30%; remaining binding at 1 µM [36]: 69%; remaining binding at 1 µM [37]: 98%; remaining binding at 1 µM [38]: 98%; remaining binding at 1 µM [39]: 0%
